Experimental findings from patent publication US6750009B2 (priority 2002, dated 2004) are described below.

“And” between values parts separate entries of the source, which are not always exact repeats. Equal values may be shown once. Read-outs that look alike come from different tables or passages of the source.

Assay [1] has as its system Sindbis replicon. It counts as cell-based, Sindbis virus. Particulars: for Sindbis Mixed Viral Replicon Culture % of Control (ave): Table 3. (In general: In antiviral work, replicon cells carry a viral genome segment that copies itself.)
Assay [2] deals with HCV replicon. It counts as cell-based, hepatitis C virus.
Assay [3] deals with YFR replicon. The assay is classed as cell-based, yellow fever virus. Particulars: for YFR Mixed Viral Replicon Culture % of Control (ave): co-cultured HCV/Sindbis/YFR replicons.
For assay [4], the system named is RSV minigenome. The assay is classed as cell-based, Respiratory syncytia virus (RSV).
The subject of assay [5] is RSV minigenome. It counts as cell-based, Respiratory syncytia virus (RSV). The source holds these as a separate data set.

As to α-interferon [IFNα], in assay [1], the “inhibition of Sindbis replicon” value is listed as > 98%. The “inhibition of HCV replicon” value in assay [2] is reported as > 91%. Moreover, the “inhibition of YFR replicon” value in assay [3] (100 u/ml IFNα, mixed viral replicon culture) is reported as > 81%. Moreover, the “YFR Mixed Viral Replicon Culture % of Control (ave)” value in assay [3] (IFNα 1 Units/ml) is 41.47 % of Control; in assay [3] (IFNα 10 Units/ml), 26.09 % of Control; in assay [3] (IFNα 100 Units/ml), 18.64 % of Control. Besides, the figures for the “RSV Mixed Viral Culture % of Control (ave)” value in assay [4] (IFN-α 100 Units/ml) and in assay [4] (IFN-α 1000 Units/ml) were 84.30 % of Control and 77.80 % of Control, respectively. The “RSV Single Viral Culture % of Control (ave)” value is 84.30 % of Control in assay [5] (IFN-α 100 Units/ml) and 47.29 % of Control in assay [5] (IFN-α 1000 Units/ml).

Consider `NC(=O)c1ncn([C@@H]2O[C@H](CO)[C@@H](O)[C@H]2O)n1` [Ribavirin, ribavirin], for which the “effect on Sindbis replicon replication” value in assay [1] is recorded as “did inhibit”. Also, the “Sindbis Mixed Viral Replicon Culture % of Control (ave)” value in assay [1] (Ribavirin 0.5 μg/ml) is listed as 40.54 % of Control; in assay [1] (Ribavirin 1 μg/ml) it was 62.98 % of Control; in assay [1] (Ribavirin 10 μg/ml), 35.04 % of Control; in assay [1] (Ribavirin 100 μg/ml), 18.11 % of Control. The “HCV Mixed Viral Replicon Culture % of Control (ave)” value in assay [2] was 100.37 % of Control and 101.51 % of Control and 99.75 % of Control and 110.22 % of Control. Besides, in assay [2], the “effect on HCV replication” value is “no effect”. The “RSV Mixed Viral Culture % of Control (ave)” value is 96.16 % of Control in assay [4] (Ribavirin 0.5 μ/ml), 44.14 % of Control in assay [4] (Ribavirin 1 μ/ml), 42.42 % of Control in assay [4] (Ribavirin 10 μ/ml) and 13.90 % of Control in assay [4] (Ribavirin 100 μ/ml). In addition, the “RSV Single Viral Culture % of Control (ave)” value was 97.31 % of Control in assay [5] (Ribavirin 0.5 μ/ml), 17.86 % of Control in assay [5] (Ribavirin 1 μ/ml), 3.74 % of Control in assay [5] (Ribavirin 10 μ/ml) and 2.82 % of Control in assay [5] (Ribavirin 100 μ/ml).
